Assays:
[1] = target: T1, recombinant human MAO-B (Homo sapiens, UniProt P27338); test: Monoamine oxidase assay (Amplex Red), MAO-B; assay type: biochemical; details: for IC50: read-out: IC50 ± SEM, Human MAO-B; for inhibition at 10 µM: at 10,000 nM (10 μM), read-out: % inhibition at indicated concentration, Human MAO-B
T1 construct: purchased Sigma-Aldrich M7441; host or cells: baculovirus-infected insect cells
T1 sequence (P27338 1-520): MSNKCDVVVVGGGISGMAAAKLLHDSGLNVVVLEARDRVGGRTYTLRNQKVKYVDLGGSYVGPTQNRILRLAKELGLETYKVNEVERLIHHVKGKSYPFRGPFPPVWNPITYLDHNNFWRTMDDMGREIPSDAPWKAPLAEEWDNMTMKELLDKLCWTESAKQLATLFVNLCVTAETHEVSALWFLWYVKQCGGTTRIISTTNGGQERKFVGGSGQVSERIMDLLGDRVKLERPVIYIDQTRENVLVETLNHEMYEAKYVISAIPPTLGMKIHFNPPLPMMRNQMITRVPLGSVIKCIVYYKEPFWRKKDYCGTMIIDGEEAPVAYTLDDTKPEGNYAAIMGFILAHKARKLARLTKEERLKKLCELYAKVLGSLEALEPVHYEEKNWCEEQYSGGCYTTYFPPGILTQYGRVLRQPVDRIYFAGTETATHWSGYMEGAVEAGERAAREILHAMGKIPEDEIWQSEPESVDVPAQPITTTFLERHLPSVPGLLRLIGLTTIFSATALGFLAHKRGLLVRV
Experimental: (§1) The determination of MAO-A and MAO-B inhibition was performed using commercially available recombinant human MAO-A and MAO-B enzymes expressed in baculovirus-infected insects sells (Sigma-Aldrich, M7316 and M7441) applying the commercially available Amplex® Red monoamine oxidase assay kit (Invitrogen A12214). The assays were performed as previously described. The determination of rat MAO-B inhibition was performed using mitochondrial-enriched fractions from male Sprague Dawley rat livers. […]

[2] = target: T2, rat A2A AR (Rattus norvegicus, UniProt P30543); test: Radioligand binding assay at rat A2A AR (rat brain striatum) vs. [^3H]MSX-2; details: rat (r); for % inhibition of radioligand binding at indicated concentration, A2A vs. [^3H]MSX-2: at 1,000 nM; for Ki: rat brain striatum, n = 3, read-out: Ki ± SEM, A2A vs. [^3H]MSX-2
T2 construct: A2A ARs of rat brain striatal membrane preparations; from tissue; host or cells: rat brain striatum membranes
Experimental: (§2) Membrane preparations and radioligand binding assays at rat A1 (rat brain cortex) and rat A2A ARs (rat brain striatum) were performed as previously described (Ozola et al., [2003]; Alnouri et al., [2015]). For assays at human A1, A2A, A2B, and A3 ARs, CHO cell membranes expressing one of the human AR subtypes were used as previously reported (Klotz et al., [1998]; Alnouri et al., [2015]; De Filippo et al., [2016]).
(§3) The synthesized tetrahydropyrazino[2,1-f ]purinediones 13–20 were evaluated in radioligand binding assays for their affinity to A1 ARs of rat brain cortical membrane and to A2A ARs of rat brain striatal membrane preparations. Selected compounds were further investigated for their affinity to human A1 and A2A ARs recombinantly expressed in Chinese hamster ovary (CHO) cells. All compounds were additionally investigated for their affinity to human A2B and A3 ARs recombinantly expressed in CHO cells to determine their AR subtype selectivity. […] It is well known that all xanthine derivatives lacking a ribose moiety, including tricyclic compounds, can only block ARs, but never act as AR agonists; therefore, additional functional studies were not required. […] Potent MAO-B inhibitors were additionally investigated for inhibition of human MAO-A to assess their selectivity. Results are presented in Tables 1–6, and data of standard ligands are included for comparison.

[3] = target: T3, rat A1 AR (Rattus norvegicus, UniProt P25099); test: Radioligand binding assay at rat A1 AR (rat brain cortex) vs. [^3H]CCPA; details: rat (r); for Ki: rat brain cortex, n = 3; for inhibition at 1.5 µM: read-out: % inhibition of radioligand binding at indicated concentration, A1 vs. [^3H]CCPA, at 1,500 nM
T3 construct: A1 ARs of rat brain cortical membrane; from tissue; host or cells: rat brain cortex membranes
T3 sequence (P25099 1-326): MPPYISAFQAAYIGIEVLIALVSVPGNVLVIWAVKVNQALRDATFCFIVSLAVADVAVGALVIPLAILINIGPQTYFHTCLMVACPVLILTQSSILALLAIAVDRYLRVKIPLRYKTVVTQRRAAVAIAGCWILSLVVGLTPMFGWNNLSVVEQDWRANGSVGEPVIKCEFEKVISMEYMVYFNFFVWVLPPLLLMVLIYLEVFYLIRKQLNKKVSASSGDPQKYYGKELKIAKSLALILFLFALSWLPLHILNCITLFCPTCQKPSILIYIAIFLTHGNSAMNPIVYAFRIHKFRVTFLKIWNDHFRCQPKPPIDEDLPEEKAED
Experimental: as §2, §3

[4] = target: T4, recombinant human MAO-A (Homo sapiens, UniProt P21397); test: Monoamine oxidase assay (Amplex Red), MAO-A; assay type: biochemical; details: for inhibition at 10 µM: at 10,000 nM, read-out: % inhibition at indicated concentration, Human MAO-A; for IC50: n = 3, read-out: IC50 ± SEM, Human MAO-A
T4 construct: purchased Sigma-Aldrich M7316; host or cells: baculovirus-infected insect cells
T4 sequence (P21397 1-527): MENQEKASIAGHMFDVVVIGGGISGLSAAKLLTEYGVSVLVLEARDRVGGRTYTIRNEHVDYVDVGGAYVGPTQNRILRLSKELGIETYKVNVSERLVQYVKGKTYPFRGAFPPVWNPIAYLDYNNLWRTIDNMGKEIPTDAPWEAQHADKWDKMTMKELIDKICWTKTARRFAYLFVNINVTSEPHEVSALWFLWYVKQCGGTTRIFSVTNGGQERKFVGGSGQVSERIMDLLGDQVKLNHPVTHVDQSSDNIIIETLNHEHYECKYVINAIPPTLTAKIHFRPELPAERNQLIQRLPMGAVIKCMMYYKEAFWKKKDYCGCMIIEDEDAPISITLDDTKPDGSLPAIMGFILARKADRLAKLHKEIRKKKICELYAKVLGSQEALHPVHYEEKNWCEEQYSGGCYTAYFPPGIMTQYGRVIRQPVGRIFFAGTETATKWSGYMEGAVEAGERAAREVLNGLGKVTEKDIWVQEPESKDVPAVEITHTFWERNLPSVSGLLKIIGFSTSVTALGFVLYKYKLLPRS
Experimental: as §1

[5] = target: T5, human A2B AR (Homo sapiens, UniProt P29275); test: Radioligand binding assay at human A2B AR vs. [^3H]PSB-603; details: for Ki: CHO cell membranes, n = 2 (n = 3 where marked a), read-out: Ki ± SEM, A2B vs. [^3H]PSB-603; for inhibition at 1 µM: at 1,000 nM, read-out: % inhibition of radioligand binding at indicated concentration, A2B vs. [^3H]PSB-603
T5 construct: expressed in transfected cells; host or cells: CHO cells
T5 sequence (P29275 1-332): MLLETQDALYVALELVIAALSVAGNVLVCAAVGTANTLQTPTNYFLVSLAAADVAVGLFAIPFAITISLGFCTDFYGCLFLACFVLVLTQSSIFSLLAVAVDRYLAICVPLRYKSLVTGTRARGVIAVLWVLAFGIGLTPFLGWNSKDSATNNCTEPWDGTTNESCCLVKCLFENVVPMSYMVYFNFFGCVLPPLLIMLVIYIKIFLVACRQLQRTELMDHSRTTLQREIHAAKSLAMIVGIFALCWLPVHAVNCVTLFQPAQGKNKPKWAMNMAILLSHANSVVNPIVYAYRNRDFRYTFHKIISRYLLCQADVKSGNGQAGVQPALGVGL
Experimental: as §2, §3

[6] = target: T6, human A3 AR (Homo sapiens, UniProt P0DMS8); test: Radioligand binding assay at human A3 AR vs. [^3H]PSB-11; details: for Ki: CHO cell membranes, n = 2 (n = 3 where marked a), read-out: Ki ± SEM, A3 vs. [^3H]PSB-11; for inhibition at 10 µM: at 10,000 nM, read-out: % inhibition of radioligand binding at indicated concentration, A3 vs. [^3H]PSB-11
T6 construct: expressed in transfected cells; host or cells: CHO cells
T6 sequence (P0DMS8 1-318): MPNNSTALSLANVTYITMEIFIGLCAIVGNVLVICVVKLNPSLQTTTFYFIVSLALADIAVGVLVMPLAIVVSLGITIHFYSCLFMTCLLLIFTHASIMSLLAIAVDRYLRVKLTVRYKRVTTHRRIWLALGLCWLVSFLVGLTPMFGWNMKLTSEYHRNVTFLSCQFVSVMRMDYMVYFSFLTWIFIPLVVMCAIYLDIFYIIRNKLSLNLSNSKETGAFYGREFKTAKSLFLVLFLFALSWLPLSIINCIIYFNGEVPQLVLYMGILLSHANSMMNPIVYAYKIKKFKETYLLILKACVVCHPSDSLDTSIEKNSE
Experimental: as §2, §3

[7] = target: T7, human A1 AR (Homo sapiens, UniProt P30542); test: Radioligand binding assay at human A1 AR vs. [^3H]CCPA; details: human (h); CHO cell membranes; n = 3
T7 construct: expressed in transfected cells; host or cells: CHO cells
T7 sequence (P30542 1-326): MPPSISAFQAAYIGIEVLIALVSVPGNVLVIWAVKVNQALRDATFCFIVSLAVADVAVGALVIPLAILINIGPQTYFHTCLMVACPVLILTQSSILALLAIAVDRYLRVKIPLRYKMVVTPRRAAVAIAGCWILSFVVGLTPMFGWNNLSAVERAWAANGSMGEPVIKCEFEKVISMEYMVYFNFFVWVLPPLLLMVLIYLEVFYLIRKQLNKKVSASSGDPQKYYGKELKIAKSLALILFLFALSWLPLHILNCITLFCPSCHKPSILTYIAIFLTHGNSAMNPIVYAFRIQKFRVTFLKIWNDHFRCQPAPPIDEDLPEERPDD
Experimental: as §2, §3

T2 sequence (P30543 whole entry): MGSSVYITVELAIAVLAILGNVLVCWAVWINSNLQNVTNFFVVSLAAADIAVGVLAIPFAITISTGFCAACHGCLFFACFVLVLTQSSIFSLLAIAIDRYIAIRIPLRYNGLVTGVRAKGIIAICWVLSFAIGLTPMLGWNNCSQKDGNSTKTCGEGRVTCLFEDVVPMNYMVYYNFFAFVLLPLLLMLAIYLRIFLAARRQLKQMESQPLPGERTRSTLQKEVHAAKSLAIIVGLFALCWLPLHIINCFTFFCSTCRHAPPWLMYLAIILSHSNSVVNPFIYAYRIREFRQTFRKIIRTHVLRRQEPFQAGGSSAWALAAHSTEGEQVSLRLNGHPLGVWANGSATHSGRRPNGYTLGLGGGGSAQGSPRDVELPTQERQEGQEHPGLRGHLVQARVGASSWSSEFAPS

Row | Compound | IC50 ([1]; n = 3) | % inhibition of radioligand binding at indicated concentration, A2A vs. [^3H]MSX-2 [2] | Ki [2] | Ki [3] | inhibition at 1.5 µM [3] | inhibition at 10 µM [4] | IC50 [4] | Ki [5] | inhibition at 1 µM [5] | Ki [6] | inhibition at 10 µM [6] | inhibition at 10 µM [1] | Ki [7] | IC50 ± SEM, Human MAO-B ([1]; n = 3)
1 | CCn1c(=O)c2c(nc3n2CCN(Cc2ccc(F)c(C(F)(F)F)c2)C3)n(CC)c1=O [Compound 15i, 1,3-diethyl-8-(4-fluoro-3-(trifluoromethyl)benzyl)-6,7,8,9-tetrahydropyrazino[2,1-f]purine-2,4(1H,3H)-dione] | 3070 nM | 30% | > 1000 nM | > 1500 nM | 19% | 8% | > 10000 nM | > 1000 nM | 33% | > 10000 nM | 36% |  |  | 
2 | CCn1c(=O)c2c(nc3n2CCN(Cc2c(Cl)cccc2Cl)C3)n(C)c1=O [Compound 14k, 8-(2,6-dichlorobenzyl)-3-ethyl-1-methyl-6,7,8,9-tetrahydropyrazino[2,1-f]purine-2,4(1H,3H)-dione] | > 10000 nM |  | 1100 nM | 142 ± 32 nM |  |  |  | > 1000 nM | 8% | > 10000 nM | 17% | 43% | 197 ± 5 nM | 
3 | Cn1c(=O)[nH]c(=O)c2c1nc1n2CCN(CCc2ccc(Cl)c(Cl)c2)C1 [Compound 13g, 8-(3,4-dichlorophenethyl)-1-methyl-6,7,8,9-tetrahydropyrazino[2,1-f]purine-2,4(1H,3H)-dione] | 864 ± 64 nM | 10% | > 1000 nM | > 1500 nM | 3% | 12% | > 10000 nM | > 1000 nM | 1% | > 10000 nM | 41% |  |  | submicromolar range
4 | CCn1c(=O)c2c(nc3n2CCN(Cc2cccc(F)c2)C3)n(CC)c1=O [Compound 15b, 1,3-diethyl-8-(3-fluorobenzyl)-6,7,8,9-tetrahydropyrazino[2,1-f]purine-2,4(1H,3H)-dione] | ≥ 10000 nM |  | 1580 nM | 47.2 ± 19.9 nM |  |  |  | > 1000 nM | 9% | 7020 nM |  | 49% | 207 ± 11 nM | 
5 | CCn1c(=O)c2c(nc3n2CCN(Cc2ccc(F)cc2)C3)n(C)c1=O [Compound 14h, 3-ethyl-8-(4-fluorobenzyl)-1-methyl-6,7,8,9-tetrahydropyrazino[2,1-f]purine-2,4(1H,3H)-dione] | > 10000 nM | 7% | > 1000 nM | 164 ± 28 nM |  |  |  | > 1000 nM | 9% | > 10000 nM | 37% | 24% | 5120 nM | 
6 | Cn1c(=O)[nH]c(=O)c2c1nc1n2CCN(CCc2ccc(Cl)cc2Cl)C1 [Compound 13f, 8-(2,4-dichlorophenethyl)-1-methyl-6,7,8,9-tetrahydropyrazino[2,1-f]purine-2,4(1H,3H)-dione] | 2880 nM | 19% | > 1000 nM | > 1500 nM | 5% | 13% | > 10000 nM | > 1000 nM | 1% | 17200 nM |  |  |  | 
7 | Cn1c(=O)[nH]c(=O)c2c1nc1n2CCN(Cc2ccccc2Br)C1 [Compound 13a, 8-(2-bromobenzyl)-1-methyl-6,7,8,9-tetrahydropyrazino[2,1-f]purine-2,4(1H,3H)-dione] | 4530 nM | -23% | > 1000 nM | > 1500 nM | 17% | 13% | > 10000 nM | > 1000 nM | 1% | 14700 nM |  |  |  | 
